Measurements as given in PMC2896318 (Biochemistry, 2009).
Like-named read-outs stand apart in the source and are kept apart here.

Assays:
[1] = target: T1, Enterobacter cloacae P99 β-lactamase (Enterobacter cloacae, UniProt P05364); conditions: for Ki: read-out: P99 K1
[2] = target: T1, Enterobacter cloacae P99 β-lactamase; assay: biochemical
[3] = target: Escherichia coli W3310 TEM-2 β-lactamase (Escherichia coli, UniProt P62593, Q37K); assay: Inhibition and turnover kinetics with TEM-2 β-lactamase; format: biochemical; conditions: for TEM k2 × 10^3 (deacylation rate constant): values are k2 × 10^3, pH 7.5, 25 °C
OXA-1 β-lactamase = OXA-1 β-lactamase (Escherichia coli, UniProt P13661); assay: Inhibition of class D β-lactamase OXA-1; format: biochemical
[4] = Spontaneous hydrolysis of diaroyl phosphates in buffer; format: physicochemical; conditions: values are ko × 10^6; 25 mM MOPS buffer, pH 7.5, 25 °C
[5] = target: T1, Enterobacter cloacae P99 β-lactamase; conditions: previously determined ratio; cited from earlier work
[6] = footnote b: calculated from ki = k2/Ki
[7] = high inhibitor concentrations (>100 μM)

T1 sequence (P05364 21-381): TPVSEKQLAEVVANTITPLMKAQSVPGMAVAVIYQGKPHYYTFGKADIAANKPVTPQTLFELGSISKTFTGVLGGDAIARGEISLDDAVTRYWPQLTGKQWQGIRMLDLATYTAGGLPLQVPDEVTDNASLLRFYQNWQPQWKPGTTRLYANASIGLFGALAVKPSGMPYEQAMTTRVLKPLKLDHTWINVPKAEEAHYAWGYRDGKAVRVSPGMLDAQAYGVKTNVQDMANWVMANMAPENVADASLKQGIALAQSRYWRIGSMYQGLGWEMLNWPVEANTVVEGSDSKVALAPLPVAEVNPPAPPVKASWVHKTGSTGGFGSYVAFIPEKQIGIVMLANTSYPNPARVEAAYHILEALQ
Chain of OXA-1 β-lactamase (P13661 26-276): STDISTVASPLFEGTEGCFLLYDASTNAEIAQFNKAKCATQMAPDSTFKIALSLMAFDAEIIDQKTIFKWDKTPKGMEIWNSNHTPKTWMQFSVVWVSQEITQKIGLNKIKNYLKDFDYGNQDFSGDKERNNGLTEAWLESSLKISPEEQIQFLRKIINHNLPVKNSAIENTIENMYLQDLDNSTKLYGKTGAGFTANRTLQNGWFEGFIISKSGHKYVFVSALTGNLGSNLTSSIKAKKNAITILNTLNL

SMILES	P99 k2 × 10^3 (deacylation rate constant) ([1]; values are k2 × 10^3, pH 7.5, 25 °C) [s^−1]	Ki [2] [µM]	TEM ki (acylation rate constant) [3, 6]	TEM k2 × 10^3 (deacylation rate constant) [3] [s^−1]	Ki (OXA-1 β-lactamase) [µM]	ko × 10^6 (spontaneous hydrolysis rate constant) [4] [s^−1]	P99 k2 × 10^3 (deacylation rate constant) ([1]; pH 7.5) [s^−1]	P99 ki (acylation rate constant) ([1]; pH 7.5) [s⁻¹ mM⁻¹]	Ki [1] [µM]	k3 (rearrangement of EI to more inert EI′, Scheme 5) [3, 7]	k4 (breakdown of EI′ to free enzyme, Scheme 5) [3, 7] [s⁻¹]	TEM ki (acylation rate constant) ([3]; pH 7.5, 20 mM MOPS, 25 °C, from progress curve fits) [s⁻¹ mM⁻¹]	Ki ([3]; read-out: TEM Ki, footnote a: calculated from Ki = k2/ki) [µM]	k3/k2 (methanol vs water partitioning of acyl-enzyme) [5]	P99 ki (acylation rate constant) [1]	Ki (OXA-1 β-lactamase; read-out: Ki for OXA-1, class D β-lactamase) [µM]
O=C(OP(=O)([O-])OC(=O)c1cc2ccccc2o1)c1cc2ccccc2o1.[Na+] [compound 12, Sodium bis[2-benzo(b)furancarbonyl] phosphate]	354 ± 26	1.3 ± 0.3	1.8 ^b s^−1mM^−1	74 ± 1	14.2	285	–	–	–	–	–	–	–	–	–	–
O=C(OP(=O)(O)OC(=O)c1ccccc1)c1ccccc1 [compound 5, dibenzoyl phosphate]	–	–	–	38 ± 3	–	0.78	9.3 ± 0.2	7 ± 1	1.33	(3.3 ± 0.7) × 10^−4 s^−1	0.00015	0.5 ± 0.1	76	23.6	–	–
O=C(OP(=O)([O-])OC(=O)c1cc2ccccc2s1)c1cc2ccccc2s1.[Na+] [compound 11, Sodium bis[benzo(b)thiophenecarbonyl] phosphate]	–	–	53 ^b s^−1mM^−1	79 ± 2	–	54.1	211 ± 6	–	0.003	–	–	–	–	–	69600 ^b s^−1mM^−1	0.06
